# Experiments:
# ERO1α = target: T1, ERO1α (Homo sapiens, UniProt Q96HE7); experiment: Cellular thermal shift assay (CETSA) in PC-9 cells, ERO1α; assay type: cell-based; settings: 100 μM, 1 hour at 37° C.
# T1 construct: endogenous in cells; host or cells: PC-9
# T1 sequence (Q96HE7 24-468): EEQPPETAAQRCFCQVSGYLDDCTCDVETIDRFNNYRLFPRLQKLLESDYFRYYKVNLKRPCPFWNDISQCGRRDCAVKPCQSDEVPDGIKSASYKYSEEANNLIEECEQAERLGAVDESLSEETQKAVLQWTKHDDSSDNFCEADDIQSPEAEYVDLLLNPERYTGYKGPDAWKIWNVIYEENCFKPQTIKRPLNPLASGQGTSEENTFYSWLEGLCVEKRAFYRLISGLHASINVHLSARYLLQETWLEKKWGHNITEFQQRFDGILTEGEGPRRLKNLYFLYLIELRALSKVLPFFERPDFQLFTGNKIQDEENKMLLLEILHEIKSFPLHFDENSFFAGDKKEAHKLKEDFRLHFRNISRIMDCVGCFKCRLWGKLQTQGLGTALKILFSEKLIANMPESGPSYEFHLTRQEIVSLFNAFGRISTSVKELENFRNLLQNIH
# Text: (§1) To date activity of T151742 towards other flavoenzymes has not been identified at this time. We utilized the Cellular Thermal Shift Assay (CETSA) to determine target engagement of T151742 in vitro using the non-small cell lung cancer (NSCLC) cell line PC-9. The EGFR driven PC-9 cell line was chosen as new treatment strategies are needed in EGFR driven NSCLC as most patients relapse and become resistant to current targeted therapies with development of further mutations such as T790M, C797S as well as emergence of EGFR independent tumors^42, 43. […] First, we determined the aggregation temperature (Tagg) of ERO1α, ERO1β, and LSD-1, which are all FAD dependent enzymes and potential in vitro targets of T15742. […]
# (§2) Upon addition of T151742, Tagg was quantified for ERO1α, ERO1β, and LSD-1. Quantification of the average of n=3 independent experiments based on western blot analysis for ERO1α, ERO1β, and LSD-1. […] Cellular viability was determined by MTT assay. n=3 independent experiments performed in quadruplicates. ****p<0.0001; by two-way ANOVA.
# (§3) Cell Lines: PC-9 cell line used was obtained from Sigma Aldrich and grown in RPMI 1640 medium with 10% fetal bovine serum and 1% penicillin/streptomycin. […] Plate was then read on the BioTek Cytation 5 at 530/590 nm. […]
# ERO1β = target: T2, ERO1β (Homo sapiens, UniProt Q86YB8); experiment: Cellular thermal shift assay (CETSA) in PC-9 cells, ERO1β; assay type: cell-based; settings: 100 μM
# T2 construct: endogenous in cells; host or cells: PC-9
# T2 sequence (Q86YB8 34-467): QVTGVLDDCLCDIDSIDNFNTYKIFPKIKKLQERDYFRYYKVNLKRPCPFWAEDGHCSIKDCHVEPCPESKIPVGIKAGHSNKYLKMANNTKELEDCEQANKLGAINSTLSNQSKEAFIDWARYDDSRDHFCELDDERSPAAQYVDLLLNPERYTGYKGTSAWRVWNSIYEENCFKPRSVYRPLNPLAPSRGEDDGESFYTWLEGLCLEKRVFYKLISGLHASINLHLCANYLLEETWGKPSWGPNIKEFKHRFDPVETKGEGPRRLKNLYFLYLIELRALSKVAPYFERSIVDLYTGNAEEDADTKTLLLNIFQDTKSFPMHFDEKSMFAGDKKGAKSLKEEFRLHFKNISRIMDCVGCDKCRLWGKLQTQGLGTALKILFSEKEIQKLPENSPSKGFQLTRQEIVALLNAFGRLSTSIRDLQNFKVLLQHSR
# Text: as §1, §2, §3
structure (smiles),measurement,setting,value
CN(C)c1ccc(/C=C2\Oc3cc(O)ccc3C2=O)cc1 [Compound T151742],Tagg for ERO1α,ERO1α,> 60 °C
same,shift of Tagg for ERO1α,ERO1α,~6 degrees
same,change of Tagg for ERO1β,ERO1β,did not change

# Reference: patent US20250064773A1, “TARGETING ERO1 ALPHA WITH AURONE DERIVATIVES” (West Virginia University Board of Governors on behalf of …, priority 2021, published 2025)
